Assay results as given in patent US6723699B1, “Treating disorders by application of insulin-like growth factors and analogs” (Cephalon, Inc., priority 1989, dated 2004).

Experiments:
motoneurons = assay: Motoneuron survival in ovo (developmentally regulated motoneuron death); format: in vivo, chick; settings: 5 μg/egg daily onto chorioallantoic membrane, E6 to E9, counted E10
Description: In the spinal cord, as well as in other regions of the nervous system, neurons are over-produced during development, and undergo a process of naturally occurring cell death prior to […] (reviewed in Oppenheim, R. W. 1991, Annu Rev. Neurosci. 14:453-501). During this period, approximately 50% of the motoneurons degenerate and die. Certain neurotrophic agents applied exogenously during this period prevent or retard this form of neuronal death (e.g., partially purified muscle extracts and ciliary neurotrophic factor reduce motor neuron death in chick embryos (McManaman et al., 1990, Neuron 4:891-898; Oppenheim et al. 1991, Science 25:1616-1617).
The IGFs were administered daily onto chorioallantoic membrane (5 μg/egg in a volume of 50 μl) from embryonic day E6 to E9 through a small window cut into the shell of the egg. Control embryos received an equal volume of vehicle (phosphate buffered saline) alone on E10, the embryos were removed, sacrificed and the spinal cords sectioned. Motoneurons (identified morphologically in silver-stained sections) were counted in serial sections from both treated and control embryos. […] The differences between effects produced by the different IGFs used were not statistically significant (Student t test […]).

[1] = test system: 14-day embryonic rat spinal cord neurons; assay: Choline acetyltransferase activity in dissociated embryonic rat spinal cord neuron cultures; format: cell-based; settings: 48 hr incubation
Protocol: The activity of IGF-I, IGF-II, or synthetic peptide derivatives of these molecules was assayed on dissociated cultures of 14-day embryonic rat spinal cord neurons. The spinal cord neurons were obtained from trypsin-dissociated spinal cords, plated, incubated with peptides, and subsequently (48 hr later) assayed for choline acetyltransferase activity as described by […] et al., Dev. Biol. 125:311-320 (1988).

[2] = test system: 14.5 day embryonic rat spinal cord neurons; assay: Choline acetyltransferase activity in 14.5 day embryonic rat spinal cord neurons, serum-free; format: cell-based; settings: serum-free and insulin-free N2 medium, 48 hr
Protocol: The activity of IGF-I, IGF-II and IGF-III was assayed on dissociated cultures of 14.5 day embryonic rat spinal cord neurons. The spinal cords were removed from embryos and dissociated in 0.05% trypsin in Dulbecco's Phosphate Buffered Saline (DPBS). Dissociated cells were seeded onto poly-1-ornithine substrates in 96 well microtiter plates at 2×10^5 cells/well in 200 μl of serum-free and insulin-free N2 medium (Bottenstein and Sato, 1979 supra) containing 0.05% bovine serum albumin. After a 48 hr incubation at 37° C. in a humidified atmosphere of 5% CO2, 95% air, cultures were assayed for choline acetyltransferase activity according to a modification (McMananman et al., Dev. Bio., 25:311-320 (1988)) of the technique described by Fonnum (Fonnum, J. Neurochem. 24:405-409 (1975)).

[3] = test system: brain ornithine decarboxylase; assay: Induction of brain ornithine decarboxylase after intracerebral injection, 4 day old rats; format: in vivo, rat; settings: 6 hours
Protocol: The in vivo activity of IGF-I, IGF-II or synthetic peptide derivatives of these molecules was tested using a biochemical marker for CNS neurotrophic activity, the induction of brain ornithine decarboxylase. The induction (i.e. increased activity) of ornithine decarboxylase has been reported to be a general marker for the actions of a variety of trophic factors. (Schwartz et al., Dev. Brain Res. 1:403-413 (1981); Kanje et al., Brain Res. 381:24-28 (1986); Russell et al., Life Sci. 19:1297-1306 (1976); MacDonnell et al. Proc. Natl. Acad. Sci. USA 74, 4681-4684 (1977); […] et al. Proc. Natl. Acad. Sci. USA 82, 4365-4368 (1985)). Sprague-Dawley rats, 4 days old, were injected intracerebrally (in the area of the lateral ventricle) with 5 μl of 0.1 M phosphate-buffered saline (PBS) containing IGF-I, IGF-II or a synthetic peptide derivative (1.25-2.5 μg dose, with 6 animals per treatment group). After 6 hours, the brains were removed, and ornithine decarboxylase was assayed essentially as described by Lewis et al., Proc. Natl. Acad. Sci. USA 75:1021-1023 (1978).

[4] = test system: brain ornithine decarboxylase; assay: Induction of brain ornithine decarboxylase after intraventricular injection, adult rats; format: in vivo, rat; settings: 6 hours, cerebral cortex, medial septum, hippocampus
Protocol: To determine whether the induction of brain ornithine decarboxylase by IGF-I was limited to developing animals, IGF-I was also injected intraventricularly into the lateral ventricles of adult Sprague-Dawley rats. After 6 hours, the brains were removed, dissected into several regions (cerebral cortex, medial septum, and hippocampus), and then assayed for ornithine decarboxylase activity as described in Example 4.

[5] = test system: cultured rat cortical cells; assay: [3H]-leucine incorporation in cultured rat cortical cells; format: cell-based; settings: low density 24 hour mixed cortical cultures
Protocol: The ability of IGF-I and a synthetic derivative of IGF-II (IGF-II(54-67)) to increase the incorporation of [^3H]-leucine and to promote the survival of neurite bearing cells was examined in cultured rat cortical cells (the numbers “54-67” in IGF-II indicate the fragment includes amino acid residues 54-67 of native IGF-II).
Measurements were performed, using standard techniques known to those skilled in the art, on dissociated cortical cells obtained from day 18-19 embryonic rats. Cells were seeded at 1.5×10^4/cm^2 on poly-1-ornithine-laminin coated plastic tissue culture cells in serum-free N2 medium (Bottenstein et al. Proc. Natl. Acad. Sci. U.S.A. 76: 514-517 (1978)). [^3H]-leucine was added to cells at plating for the incorporation assay. Cultures were terminated 24 hours after plating and measured for either [^3H]-leucine incorporation or for the number of neuritic cells by microscopic examination.

[6] = test system: 125I-[Threonine59]IGF-I binding to brain tissue sections; assay: 125I-[Threonine59]IGF-I binding displacement on rat brain tissue sections
Protocol: Brains were removed intact from adult Sprague-Dawley rats, frozen on powdered dry ice, and cut into 20 μm sections (at the level of the cerebellum and brain stem) which were
thaw-mounted onto gelatin-coated glass microscope slides (Herkenham and Pert, J. Neurosci. 2:1129-1149 (1982)). Using a modification of the method of Bohannon et al. (1986), the tissue sections were covered with 250 μl of HEPES assay buffer (see Example 1) containing 0.01 nM ^125I-[Threonine^59]IGF-I alone or in combination with unlabeled IGF-I, IGF-II, or synthetic peptide fragments thereof. The sections were incubated at 4° C. for 24 hours and then rinsed in three 1-minute changes (200 ml each) of ice-cold HEPES assay buffer. The tissue sections were then wiped off the slides with filter paper, and the tissue-bound radioactivity was measured in a Beckman Model 5500B Gamma Counter.

GPETLCGAELVDALQFVCGDRGFYFNKPTGYGSSS-RRAPQTGIVDECCFRSCDLRRLEMYCAPLKPAKSA [IGF-I]
prevention of developmentally regulated motoneuron death (in words) (motoneurons): partially prevented developmentally regulated motoneuron death | choline acetyltransferase activity (in words) [1]: substantial, dose-dependent increase in choline acetyltransferase activity | choline acetyltransferase activity (in words) [2]: substantial, dose-dependent increase in choline acetyltransferase activity | brain ornithine decarboxylase activity (in words) [3]: dose-dependent increase in brain ornithine decarboxylase activity | ornithine decarboxylase activity (in words) [4]: stimulated ornithine decarboxylase activity in all brain regions assayed | [3H]-leucine incorporation (in words) [5]: increased [^3H]-leucine incorporation | PERCENT MAX. BOUND ([6]; peptide 4 pM, 0.01 nM 125I-[Thr59]IGF-I): 91% | PERCENT MAX. BOUND ([6]; peptide 400 pM): 30% | displacement of 125I-[Threonine59]IGF-I binding (in words) ([6]; rat brain sections): potently displaced
